Laboratory results taken from PMC6508984 (Journal of medicinal chemistry, 2019).

What was measured:
GluN1/2B = GluN1/2B (Rattus norvegicus, UniProt P35439+Q00960); settings: 100 μM, in absence of both Glu and Gly
GluN1/2C = GluN1/2C (Rattus norvegicus, UniProt P35439+Q00961); settings: 100 μM, in absence of both Glu and Gly
GluN1/2D = GluN1/2D (Rattus norvegicus, UniProt P35439+Q62645); settings: 100 μM, in absence of both Glu and Gly
GluA2i(Q) = GluA2i(Q) (Rattus norvegicus, UniProt P19491); test: Ca2+/Fluo-4 assay, GluA2; type: cell-based; settings: for GluA2i(Q) SAR@: concentration giving significant agonist response >5% of the maximal response induced by (S)-Glu: HEK293, complete concentration-response curve could not be obtained
GluA2(R)o = GluA2(R)o (Rattus norvegicus, UniProt P19491, Q607R); settings: Hill coefficient of binding curve
GluA1o = GluA1o (Rattus norvegicus, UniProt P19490); settings: Hill coefficient of binding curve
GluA3o = GluA3o (Rattus norvegicus, UniProt P19492); settings: Hill coefficient of binding curve
GluA1i = GluA1i (Rattus norvegicus, UniProt P19490); test: Ca2+/Fluo-4 assay, GluA1i-HEK293 cell line; type: cell-based
GluA3i = GluA3i (Rattus norvegicus, UniProt P19492); test: Ca2+/Fluo-4 assay, GluA3i-HEK293 cell line; type: cell-based
GluA4i = GluA4i (Rattus norvegicus, UniProt P19493); test: cell-based; settings: GluA4i EC50, HEK293; 10 mM Ca2+ and 100 μM cyclothiazide; tested up to 1000 μM
GluA4o = GluA4o (Rattus norvegicus, UniProt P19493); settings: Hill coefficient of binding curve
GluA4o, sequence (P19493 21-902): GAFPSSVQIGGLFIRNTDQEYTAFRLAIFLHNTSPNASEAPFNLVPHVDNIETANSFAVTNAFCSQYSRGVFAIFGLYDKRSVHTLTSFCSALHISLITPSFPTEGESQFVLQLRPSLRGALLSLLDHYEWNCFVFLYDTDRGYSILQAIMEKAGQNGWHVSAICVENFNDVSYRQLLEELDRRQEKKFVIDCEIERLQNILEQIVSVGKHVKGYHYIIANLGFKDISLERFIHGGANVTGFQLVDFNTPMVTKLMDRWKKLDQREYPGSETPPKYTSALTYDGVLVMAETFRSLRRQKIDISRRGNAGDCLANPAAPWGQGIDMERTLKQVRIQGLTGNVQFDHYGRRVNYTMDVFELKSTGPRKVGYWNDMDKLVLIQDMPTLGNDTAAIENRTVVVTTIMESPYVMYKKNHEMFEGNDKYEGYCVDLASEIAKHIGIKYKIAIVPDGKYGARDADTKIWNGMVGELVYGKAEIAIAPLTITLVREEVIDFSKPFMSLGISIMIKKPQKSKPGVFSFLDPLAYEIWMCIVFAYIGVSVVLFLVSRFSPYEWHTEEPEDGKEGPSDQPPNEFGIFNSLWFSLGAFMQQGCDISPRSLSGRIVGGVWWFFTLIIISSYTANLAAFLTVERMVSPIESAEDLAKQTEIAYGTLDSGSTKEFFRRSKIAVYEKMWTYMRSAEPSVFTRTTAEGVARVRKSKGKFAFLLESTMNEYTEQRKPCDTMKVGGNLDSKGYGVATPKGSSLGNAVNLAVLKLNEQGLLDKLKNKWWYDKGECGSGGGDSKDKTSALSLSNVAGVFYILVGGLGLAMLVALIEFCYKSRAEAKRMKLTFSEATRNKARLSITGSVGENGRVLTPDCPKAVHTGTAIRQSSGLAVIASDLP

GluA2i(Q), sequence (P19491 22-883 isoform P19491-2 limits assumed): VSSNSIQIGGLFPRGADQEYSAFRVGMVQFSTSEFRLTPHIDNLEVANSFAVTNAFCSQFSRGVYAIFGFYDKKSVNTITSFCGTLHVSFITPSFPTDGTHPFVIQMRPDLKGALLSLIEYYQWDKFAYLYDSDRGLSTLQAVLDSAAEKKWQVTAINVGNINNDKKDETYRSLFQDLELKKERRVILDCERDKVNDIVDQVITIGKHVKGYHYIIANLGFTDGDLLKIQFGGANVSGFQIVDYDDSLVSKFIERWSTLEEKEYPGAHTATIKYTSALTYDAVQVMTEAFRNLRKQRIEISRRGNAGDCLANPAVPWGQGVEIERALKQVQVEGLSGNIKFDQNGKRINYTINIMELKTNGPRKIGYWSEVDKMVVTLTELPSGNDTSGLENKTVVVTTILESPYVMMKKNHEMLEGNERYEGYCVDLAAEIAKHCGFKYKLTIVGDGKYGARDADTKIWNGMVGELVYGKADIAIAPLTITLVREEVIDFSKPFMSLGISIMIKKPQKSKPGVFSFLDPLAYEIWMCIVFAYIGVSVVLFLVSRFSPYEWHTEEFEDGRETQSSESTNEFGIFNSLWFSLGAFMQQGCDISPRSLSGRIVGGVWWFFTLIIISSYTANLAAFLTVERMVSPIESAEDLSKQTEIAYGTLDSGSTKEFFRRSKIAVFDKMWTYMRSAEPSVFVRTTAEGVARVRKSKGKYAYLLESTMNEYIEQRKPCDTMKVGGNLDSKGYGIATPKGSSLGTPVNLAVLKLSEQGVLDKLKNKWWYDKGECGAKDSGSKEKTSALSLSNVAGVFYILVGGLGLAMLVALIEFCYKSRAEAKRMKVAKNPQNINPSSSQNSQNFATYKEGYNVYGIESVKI
GluA1o, sequence (P19490 19-907): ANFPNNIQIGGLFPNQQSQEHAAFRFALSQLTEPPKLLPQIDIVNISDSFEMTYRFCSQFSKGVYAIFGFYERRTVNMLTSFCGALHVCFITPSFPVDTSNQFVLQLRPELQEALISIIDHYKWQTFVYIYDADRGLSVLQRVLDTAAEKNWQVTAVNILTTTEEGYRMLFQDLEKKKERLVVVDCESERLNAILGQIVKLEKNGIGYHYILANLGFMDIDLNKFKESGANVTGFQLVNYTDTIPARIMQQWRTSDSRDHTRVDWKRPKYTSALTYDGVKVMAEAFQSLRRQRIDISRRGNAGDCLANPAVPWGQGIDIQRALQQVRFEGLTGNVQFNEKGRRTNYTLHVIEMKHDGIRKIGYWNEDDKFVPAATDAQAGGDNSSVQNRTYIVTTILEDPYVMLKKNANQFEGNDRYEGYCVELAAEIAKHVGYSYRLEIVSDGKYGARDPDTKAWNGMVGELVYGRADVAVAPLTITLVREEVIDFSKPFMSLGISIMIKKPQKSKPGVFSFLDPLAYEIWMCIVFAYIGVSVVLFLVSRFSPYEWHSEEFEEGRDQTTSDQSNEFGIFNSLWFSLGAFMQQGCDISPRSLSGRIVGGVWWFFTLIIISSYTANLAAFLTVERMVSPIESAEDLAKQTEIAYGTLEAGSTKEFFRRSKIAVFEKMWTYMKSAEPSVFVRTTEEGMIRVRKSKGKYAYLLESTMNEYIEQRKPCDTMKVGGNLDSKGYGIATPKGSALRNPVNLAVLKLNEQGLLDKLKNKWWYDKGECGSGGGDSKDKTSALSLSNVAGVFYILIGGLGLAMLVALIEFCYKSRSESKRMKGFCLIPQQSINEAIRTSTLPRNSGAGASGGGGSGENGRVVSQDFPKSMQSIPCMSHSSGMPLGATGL
GluA3o, sequence (P19492 23-888): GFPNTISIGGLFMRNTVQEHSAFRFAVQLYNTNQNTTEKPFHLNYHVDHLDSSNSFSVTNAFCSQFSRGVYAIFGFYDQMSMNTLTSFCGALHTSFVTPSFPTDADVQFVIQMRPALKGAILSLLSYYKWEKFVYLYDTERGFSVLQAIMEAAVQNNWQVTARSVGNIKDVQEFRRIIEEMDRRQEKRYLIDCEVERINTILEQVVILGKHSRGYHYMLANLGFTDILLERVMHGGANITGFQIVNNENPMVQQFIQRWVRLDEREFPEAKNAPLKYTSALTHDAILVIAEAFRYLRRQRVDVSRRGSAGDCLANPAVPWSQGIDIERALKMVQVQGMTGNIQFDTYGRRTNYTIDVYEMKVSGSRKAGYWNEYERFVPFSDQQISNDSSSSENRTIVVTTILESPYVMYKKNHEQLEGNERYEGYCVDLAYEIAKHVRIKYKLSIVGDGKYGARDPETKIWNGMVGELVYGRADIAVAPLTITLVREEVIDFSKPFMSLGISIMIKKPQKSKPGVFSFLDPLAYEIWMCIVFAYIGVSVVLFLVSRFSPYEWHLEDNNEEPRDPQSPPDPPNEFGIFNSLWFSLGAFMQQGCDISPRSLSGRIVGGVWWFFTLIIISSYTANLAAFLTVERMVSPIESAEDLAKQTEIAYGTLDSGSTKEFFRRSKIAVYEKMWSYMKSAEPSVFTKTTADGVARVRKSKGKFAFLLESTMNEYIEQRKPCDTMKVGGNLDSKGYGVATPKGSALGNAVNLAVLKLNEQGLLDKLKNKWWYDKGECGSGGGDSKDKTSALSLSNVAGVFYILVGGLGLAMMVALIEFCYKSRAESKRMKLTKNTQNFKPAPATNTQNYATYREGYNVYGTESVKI
GluA2(R)o, sequence (P19491 22-883 Q607R): as the sequence (P19491 22-883 isoform P19491-2 limits assumed) above, with Q586R, T744N, P745A, S754N, V758L, A775S, K776G, D777G, S778G, G779D counted along it
GluA1i, sequence (P19490 19-907 isoform P19490-2 limits assumed): as the sequence (P19490 19-907) above, with N740G, N750S, L754V, N760S, G772K, G773D, G774S, D775G counted along it
GluA3i, sequence (P19492 23-888 isoform P19492-2 limits assumed): as the sequence (P19492 23-888) above, with N748T, A749P, N758S, L762I, S779A, G780K, G781D, G782S, D783G counted along it
GluN1/2C, sequence (Q00961 20-1237, other chains not shown): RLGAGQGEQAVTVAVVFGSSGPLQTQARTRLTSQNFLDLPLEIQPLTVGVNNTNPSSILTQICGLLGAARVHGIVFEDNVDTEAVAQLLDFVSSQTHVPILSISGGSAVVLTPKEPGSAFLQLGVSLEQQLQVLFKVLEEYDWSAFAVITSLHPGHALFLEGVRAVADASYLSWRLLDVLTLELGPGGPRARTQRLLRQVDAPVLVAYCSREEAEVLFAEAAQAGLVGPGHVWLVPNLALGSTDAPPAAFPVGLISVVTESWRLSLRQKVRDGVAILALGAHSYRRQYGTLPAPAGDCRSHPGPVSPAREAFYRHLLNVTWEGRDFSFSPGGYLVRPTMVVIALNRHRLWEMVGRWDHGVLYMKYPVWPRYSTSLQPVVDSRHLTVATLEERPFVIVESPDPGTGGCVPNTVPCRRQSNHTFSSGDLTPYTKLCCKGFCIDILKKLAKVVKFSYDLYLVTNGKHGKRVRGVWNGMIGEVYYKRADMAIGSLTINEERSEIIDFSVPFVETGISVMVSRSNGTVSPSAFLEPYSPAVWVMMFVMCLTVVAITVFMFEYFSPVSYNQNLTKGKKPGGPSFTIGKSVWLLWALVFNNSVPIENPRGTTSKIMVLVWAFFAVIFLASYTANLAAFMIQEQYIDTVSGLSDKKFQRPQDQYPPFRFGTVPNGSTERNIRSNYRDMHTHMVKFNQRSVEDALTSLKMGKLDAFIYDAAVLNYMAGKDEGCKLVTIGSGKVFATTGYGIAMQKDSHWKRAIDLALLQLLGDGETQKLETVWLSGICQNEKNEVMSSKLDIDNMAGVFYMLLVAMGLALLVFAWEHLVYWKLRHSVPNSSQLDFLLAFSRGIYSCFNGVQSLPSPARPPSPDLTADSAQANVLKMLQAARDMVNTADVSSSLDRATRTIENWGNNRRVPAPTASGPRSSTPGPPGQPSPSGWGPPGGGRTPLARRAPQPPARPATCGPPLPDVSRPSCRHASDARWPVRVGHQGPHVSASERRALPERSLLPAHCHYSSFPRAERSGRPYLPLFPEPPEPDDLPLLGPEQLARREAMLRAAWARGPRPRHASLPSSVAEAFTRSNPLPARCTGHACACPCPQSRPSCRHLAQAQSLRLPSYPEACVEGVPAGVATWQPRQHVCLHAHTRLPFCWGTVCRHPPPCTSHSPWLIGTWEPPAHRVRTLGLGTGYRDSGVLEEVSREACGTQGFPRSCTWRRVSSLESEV

Row | SMILES | GluA2i(Q) SAR@: concentration giving significant agonist response >5% of the maximal response induced by (S)-Glu (GluA2i(Q)) | GluA2(R)o nH (GluA2(R)o) | GluA1o nH (GluA1o) | GluA3o nH (GluA3o) | EC50 (GluA1i) [µM] | EC50 (GluA2i(Q)) [µM] | EC50 (GluA3i) [µM] | further results
1 | Cn1nc(O)c(C(N)C(=O)O)n1 (racemic) [Compound 8, (RS) 2-Amino-2-(5-hydroxy-2-methyl-2H-1,2,3-triazol-4-yl)acetic acid] |  |  |  |  |  |  |  | Activation by compound alone (GluN1/2B): able to activate; Activation by compound alone (GluN1/2C): able to activate; Activation by compound alone (GluN1/2D): able to activate
2 | CCCn1nnc(O)c1CC(N)C(=O)O (racemic) [Compound 6c, (RS) 2-Amino-3-(4-hydroxy-1-propyl-1H-1,2,3-triazol-5-yl)propanoic acid] | SAR@ 1000 μM | 1.55 ± 0.65 | 0.81 ± 0.07 | 0.75 ± 0.09 |  |  |  | 
3 | CCn1nc(O)c(CC(N)C(=O)O)n1 (racemic) [Compound 7b, (RS) 2-Amino-3-(2-ethyl-5-hydroxy-2H-1,2,3-triazol-4-yl)propanoic acid] |  |  |  |  | > 1000 | > 1000 | > 1000 | EC50 (GluA4i): > 1000 µM
4 | Cn1nnc(O)c1CC(N)C(=O)O (racemic) [Compound 6a, (RS) 2-Amino-3-(4-hydroxy-1-methyl-1H-1,2,3-triazol-5-yl)propanoic acid] | SAR@ 300 μM | 0.95 ± 0.09 | 1.02 ± 0.17 | 0.95 ± 0.25 |  |  |  | GluA4o nH (GluA4o): 0.89 ± 0.07
5 | CCCn1nc(O)c(CC(N)C(=O)O)n1 (racemic) [Compound 7c, (RS) 2-Amino-3-(5-hydroxy-2-propyl-2H-1,2,3-triazol-4-yl)propanoic acid] |  |  |  |  | > 1000 | > 1000 | > 1000 | 
